Source: patent US20220281886A1, “NATRIURETIC PEPTIDE RECEPTOR A AGONISTS USEFUL FOR THE TREATMENT OF CARDIOMETABOLIC DISEASES, KIDNEY DISEASE AND DIABETES” (Merck Sharp & Dohme Corp., priority 2019, published 2022)

Target: T1, hNPRA (Homo sapiens, UniProt P16066)
T1 construct: expressed in transfected cells
T1 sequence (P16066 33-1061): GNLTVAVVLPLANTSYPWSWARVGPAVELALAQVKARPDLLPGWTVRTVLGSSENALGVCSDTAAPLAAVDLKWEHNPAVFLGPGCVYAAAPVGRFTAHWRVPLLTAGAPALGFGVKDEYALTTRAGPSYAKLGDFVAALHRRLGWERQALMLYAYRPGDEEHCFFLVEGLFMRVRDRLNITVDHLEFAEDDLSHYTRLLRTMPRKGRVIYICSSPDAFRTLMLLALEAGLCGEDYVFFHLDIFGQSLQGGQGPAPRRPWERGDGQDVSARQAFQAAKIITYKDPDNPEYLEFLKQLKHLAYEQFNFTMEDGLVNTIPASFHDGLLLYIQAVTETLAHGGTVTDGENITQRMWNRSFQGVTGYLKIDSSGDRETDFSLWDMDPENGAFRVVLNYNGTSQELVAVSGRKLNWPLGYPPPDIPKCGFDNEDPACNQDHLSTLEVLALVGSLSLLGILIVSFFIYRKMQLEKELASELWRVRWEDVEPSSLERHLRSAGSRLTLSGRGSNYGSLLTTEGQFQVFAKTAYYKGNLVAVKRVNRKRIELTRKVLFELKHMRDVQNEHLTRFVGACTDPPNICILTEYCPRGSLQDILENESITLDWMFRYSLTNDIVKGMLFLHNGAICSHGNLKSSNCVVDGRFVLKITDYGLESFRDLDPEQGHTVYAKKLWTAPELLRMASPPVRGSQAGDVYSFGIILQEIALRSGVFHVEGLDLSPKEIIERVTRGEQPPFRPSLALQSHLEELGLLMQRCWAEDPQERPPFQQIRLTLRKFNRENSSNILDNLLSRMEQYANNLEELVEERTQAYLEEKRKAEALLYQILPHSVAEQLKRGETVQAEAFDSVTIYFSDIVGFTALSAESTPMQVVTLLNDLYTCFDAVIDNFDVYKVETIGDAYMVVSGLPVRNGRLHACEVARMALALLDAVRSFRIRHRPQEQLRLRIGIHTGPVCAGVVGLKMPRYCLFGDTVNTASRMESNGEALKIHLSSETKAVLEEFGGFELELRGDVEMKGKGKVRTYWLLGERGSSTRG
Experiment: NPRA Functional Cell Assay (cGMP HTRF)
Format: cell-based
Conditions: Human NPRA HEK JumpIn stable cells; cGMP by HTRF after 1 hour at 37° C.; 10-point dose response
In short: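 HEK JumpIn cells stably expressing human, rat or dog NPRA incubated 1 hour at 37° C with compound (10-point titration) in Opti-MEM buffer with 100 uM IBMX and 100 uM RO20. cGMP measured by HTRF against an on-plate calibration curve; EC50 from 4-parameter fit, positive control 10 nM rat-ANP (rat) or 50 nM h-ANP (human, dog).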

SMILES	EC50
COC(=O)CC1CCN(CC[C@@H](NC(=O)c2ccc3nc4c(cc3c2)C[C@@H](C2(C)CC2)CC4)c2cccc(C(=O)NC3CN(C)C3)c2)CC1 (racemic) [Example 65, methyl 2-[1-[rac-(3R)-3-[(1-methylazetidin-3-yl)carbamoyl]phenyl]-3-[[rac-(7S)-7-(1-methylcyclopropyl)-5,6,7,8-tetrahydroacridine-2-carbonyl]amino]propyl]-4-piperidyl]acetate]	359 nM
CN1CC(NC(=O)c2cccc([C@@H](CCN3CCC(CC(=O)O)CC3)NC(=O)c3ccc4nc5c(cc4c3)C[C@@H](C3(C)CC3)CC5)c2)C1 (racemic) [Example 66, 2-[1-[rac-(3R)-3-[3-[(1-methylazetidin-3-yl)carbamoyl]phenyl]-3-[[rac-(7S)-7-(1-methylcyclopropyl)-5,6,7,8-tetrahydroacridine-2-carbonyl]amino]propyl]-4-piperidyl]acetic acid]	398 nM
CN(C)CC[C@@H](NC(=O)c1ccc2nc3c(cc2c1)C[C@@H](C1(C)CC1)CC3)c1cccc(C(=O)NC2CN(C)C2)c1 (racemic) [Example 67, rac-(7S)-7-(1-methylcyclopropyl)-N-[rac-(1R)-3-(dimethylamino)-1-[3-[(1-methylazetidin-3-yl)carbamoyl]phenyl]propyl]-5,6,7,8-tetrahydroacridine-2-carboxamide]	378 nM
CN1CC(NC(=O)c2cccc([C@@H](CCN3CCC(O)CC3)NC(=O)c3ccc4nc5c(cc4c3)C[C@@H](C3(C)CC3)CC5)c2)C1 (racemic) [Example 68, rac-(7S)-7-(1-methylcyclopropyl)-N-[rac-(1R)-3-(4-hydroxy-1-piperidyl)-1-[3-[(1-methylazetidin-1-ium-3-yl)carbamoyl]phenyl]propyl]-5,6,7,8-tetrahydroacridine-2-carboxamide;2,2,2-trifluoroacetate]	369 nM
CCS(=O)(=O)c1ccc([C@@H](CCN2CCC(O)CC2)NC(=O)c2cc(F)c3nc4c(cc3c2)CC(F)(C(C)C)CC4)cn1 (stereo in doubt) [Example 30, (S)-N-((R)-1-(6-(ethylsulfonyl)pyridin-3-yl)-3-(4-hydroxypiperidin-1-yl)propyl)-4,7-difluoro-7-isopropyl-5,6,7,8-tetrahydroacridine-2-carboxamide]	970 nM
CC1([C@H]2CCc3nc4ccc(C(=O)N[C@H](CCN5CCC(O)CC5)c5ccc(N6CCOC6=O)cc5)cc4cc3C2)CC1 [Example 1, (S)-N-((R)-3-(4-hydroxypiperidin-1-yl)-1-(4-(2-oxooxazolidin-3-yl)phenyl)propyl)-7-(1-methylcyclopropyl)-5,6,7,8-tetrahydroacridine-2-carboxamide]	701 nM
CC1([C@H]2CCc3nc4ccc(C(=O)N[C@H](CCN5CCC[C@H]5CO)c5ccc(N6CCOC6=O)cc5)cc4cc3C2)CC1 [Example 2, (S)-N-((R)-3-((S)-2-(hydroxymethyl)pyrrolidin-1-yl)-1-(4-(2-oxooxazolidin-3-yl)phenyl)propyl)-7-(1-methylcyclopropyl)-5,6,7,8-tetrahydroacridine-2-carboxamide]	1720 nM
CC(C)(C)[C@H]1CCc2nc3ccc(C(=O)N[C@H](CCN4CCC(O)CC4)c4ccc(N5CCOC5=O)cc4)cc3cc2C1 [Example 3, (7S)-7-tert-butyl-N-{(1R)-3-(4-hydroxypiperidin-1-yl)-1-[4-(2-oxo-1,3-oxazolidin-3-yl)phenyl]propyl}-5,6,7,8-tetrahydroacridine-2-carboxamide]	753 nM
O=C(N[C@H](CCN1CCC(O)CC1)c1ccc(N2CCOC2=O)cc1)c1ccc2nc3c(cc2c1)C[C@@H](C1(C(F)(F)F)CC1)CC3 [Example 4, (7S)-N-{(1R)-3-(4-hydroxypiperidin-1-yl)-1-[4-(2-oxo-1,3-oxazolidin-3-yl)phenyl]propyl}-7-[1-(trifluoromethyl)cyclopropyl]-5,6,7,8-tetrahydroacridine-2-carboxamide]	2220 nM
C[Si](C)(C)[C@H]1CCc2nc3ccc(C(=O)N[C@H](CCN4CCC(O)CC4)c4ccc(N5CCOC5=O)cc4)cc3cc2C1 [Example 5, (7S)-N-{(1R)-3-(4-hydroxypiperidin-1-yl)-1-[4-(2-oxo-1,3-oxazolidin-3-yl)phenyl]propyl}-7-(trimethylsilyl)-5,6,7,8-tetrahydroacridine-2-carboxamide]	1980 nM
CC(C)[C@]1(F)CCc2nc3c(F)cc(C(=O)N[C@H](CCN4CCC(O)CC4)c4ccc(N5CCOC5=O)cc4)cc3cc2C1 [Example 6, (7S)-4,7-difluoro-N-{(1R)-3-(4-hydroxypiperidin-1-yl)-1-[4-(2-oxo-1,3-oxazolidin-3-yl)phenyl]propyl}-7-(1-methylethyl)-5,6,7,8-tetrahydroacridine-2-carboxamide]	114 nM
CC(C)[C@]1(F)CCc2nc3c(F)c(F)c(C(=O)N[C@H](CCN4CCC(O)CC4)c4ccc(N5CCOC5=O)cc4)cc3cc2C1 [Example 7, (7S)-3,4,7-trifluoro-N-{(1R)-3-(4-hydroxypiperidin-1-yl)-1-[4-(2-oxo-1,3-oxazolidin-3-yl)phenyl]propyl}-7-(1-methylethyl)-5,6,7,8-tetrahydroacridine-2-carboxamide]	251 nM
Cc1cc(C(=O)N[C@H](CCN2CCC(O)CC2)c2ccc(N3CCOC3=O)cc2)cc2cc3c(nc12)CCC(C(C)(C)C)C3 (stereo partly drawn) [Example 9, 7-(tert-butyl)-N-((R)-3-(4-hydroxypiperidin-1-yl)-1-(4-(2-oxooxazolidin-3-yl)phenyl)propyl)-4-methyl-5,6,7,8-tetrahydroacridine-2-carboxamide+]	2550 nM
CC(C)[C@]1(F)CCc2nc3c(F)cc(C(=O)N[C@H](CCN4CCC(O)CC4)c4ccc(-c5ccnnc5)nc4)cc3cc2C1 [Example 10, (7S)-4,7-difluoro-N-[(1R)-3-(4-hydroxypiperidin-1-yl)-1-(6-pyridazin-4-ylpyridin-3-yl)propyl]-7-(1-methylethyl)-5,6,7,8-tetrahydroacridine-2-carboxamide]	112 nM
CC(C)[C@]1(F)CCc2nc3c(F)cc(C(=O)N[C@H](CCN4CCC(O)CC4(C)C)c4ccc(-c5ccnnc5)nc4)cc3cc2C1 (stereo partly drawn) [Example 11, (7S)-4,7-difluoro-N-[(1R)-3-(4-hydroxy-2,2-dimethylpiperidin-1-yl)-1-(6-pyridazin-4-ylpyridin-3-yl)propyl]-7-(1-methylethyl)-5,6,7,8-tetrahydroacridine-2-carboxamide]	219 nM
CC(C)[C@]1(F)CCc2nc3c(F)cc(C(=O)N[C@H](CCN4CCC(C)(O)CC4)c4ccc(-c5ccnnc5)nc4)cc3cc2C1 [Example 12, (7S)-4,7-difluoro-N-[(1R)-3-(4-hydroxy-4-methylpiperidin-1-yl)-1-(6-pyridazin-4-ylpyridin-3-yl)propyl]-7-(1-methylethyl)-5,6,7,8-tetrahydroacridine-2-carboxamide]	205 nM
CC(C)[C@]1(F)CCc2nc3c(F)cc(C(=O)N[C@H](CCN4CCC(O)(C(=O)O)CC4)c4ccc(-c5ccnnc5)nc4)cc3cc2C1 [Example 13, 1-[(3R)-3-({[(7S)-4,7-difluoro-7-(1-methylethyl)-5,6,7,8-tetrahydroacridin-2-yl]carbonyl}amino)-3-(6-pyridazin-4-ylpyridin-3-yl)propyl]-4-hydroxypiperidine-4-carboxylic acid]	855 nM
CC(C)[C@]1(F)CCc2nc3c(F)cc(C(=O)N[C@H](CCN4CC5CC(C4)C5(O)C(F)(F)F)c4ccc(-c5ccnnc5)nc4)cc3cc2C1 (stereo partly drawn) [Example 14, (7S)-4,7-difluoro-N-[(1R)-3-[6-hydroxy-6-(trifluoromethyl)-3-azabicyclo[3.1.1]hept-3-yl]-1-(6-pyridazin-4-ylpyridin-3-yl)propyl]-7-(1-methylethyl)-5,6,7,8-tetrahydroacridine-2-carboxamide]	2090 nM
CC(C)[C@]1(F)CCc2nc3c(F)cc(C(=O)N[C@H](CCN4CCC5(O)CCCCC5C4)c4ccc(-c5ccnnc5)nc4)cc3cc2C1 (stereo partly drawn) [Example 15, (7S)-4,7-difluoro-N-[(1R)-3-(4a-hydroxyoctahydroisoquinolin-2(1H)-yl)-1-(6-pyridazin-4-ylpyridin-3-yl)propyl]-7-(1-methylethyl)-5,6,7,8-tetrahydroacridine-2-carboxamide]	257 nM
